Reference: ChEMBL document CHEMBL1156485, “Distinct structural changes in a G protein-coupled receptor caused by different classes of agonist ligands” (J Biol Chem, 2007)
The source made the active and inactive calls. The rule behind the calls is not given here.

Tests used:
[1] = test system: Muscarinic acetylcholine receptor M3 (Rattus norvegicus), P08483 [A91C,T549C]; assay: Stimulation of disulfide bond cross-linking formation in rat M3'(3C)-Xa receptor A91C/T549C mutant expressed in african green monkey COS7 cells by scanning densitometry relative to control; format: cell-based; settings: COS-7
[2] = test system: Muscarinic acetylcholine receptor M3 (Rattus norvegicus), P08483 [F92C,F550C]; assay: Stimulation of disulfide bond cross-linking formation in rat M3'(3C)-Xa receptor F92C/F550C mutant expressed in african green monkey COS7 cells by scanning densitometry relative to control; format: cell-based; settings: COS-7
[3] = test system: Muscarinic acetylcholine receptor M3 (Rattus norvegicus), P08483 [A91C,T549C]; assay: Enhancement of disulfide bond cross-linking formation in rat M3'(3C)-Xa receptor A91C/T549C mutant expressed in african green monkey COS7 cells at 100 nM by Western blotting; format: cell-based; settings: COS-7
[4] = test system: Muscarinic acetylcholine receptor M3 (Rattus norvegicus), P08483 [F92C,F550C]; assay: Enhancement of disulfide bond cross-linking formation in rat M3'(3C)-Xa receptor F92C/F550C mutant expressed in african green monkey COS7 cells at 100 nM by Western blotting; format: cell-based; settings: COS-7
[5] = test system: Muscarinic acetylcholine receptor M3 (Rattus norvegicus), P08483 [A91C,T549C]; assay: Inverse agonist activity at rat M3'(3C)-Xa receptor A91C/T549C mutant expressed in african green monkey COS7 cells assessed as reduction in basal inositol monophosphate accumulation at 10 uM; format: functional, cell-based; settings: COS-7
[6] = test system: Muscarinic acetylcholine receptor M3 (Rattus norvegicus), P08483 [F92C,F550C]; assay: Inverse agonist activity at rat M3'(3C)-Xa receptor F92C/F550C mutant expressed in african green monkey COS7 cells assessed as reduction in basal inositol monophosphate accumulation at 10 uM; format: functional, cell-based; settings: COS-7
COS-7 = assay: Inverse agonist activity at rat M3'(3C)-Xa receptor expressed in african green monkey COS7 cells assessed as reduction in basal inositol monophosphate accumulation at 10 uM; format: functional, cell-based
[7] = Agonist activity at rat M3'(3C)-Xa receptor expressed in african green monkey COS7 cells assessed as increase in myo-[3H]inositol hydrolysis; format: functional, cell-based; settings: COS-7
[8] = Displacement of [3H]NMS from rat M3'(3C)-Xa receptor expressed in african green monkey COS7 cells; format: cell-based; settings: cos-7
[9] = test system: Muscarinic acetylcholine receptor M3 (Rattus norvegicus), P08483 [A91C,T549C]; assay: Inhibition of disulfide bond cross-linking in rat M3'(3C)-Xa receptor A91C/T549C mutant expressed in african green monkey COS7 cells at 1 mM by Western blotting; format: cell-based; settings: COS-7
[10] = test system: Muscarinic acetylcholine receptor M3 (Rattus norvegicus), P08483 [F92C,F550C]; assay: Inhibition of disulfide bond cross-linking in rat M3'(3C)-Xa receptor F92C/F550C mutant expressed in african green monkey COS7 cells at 1 mM by Western blotting; format: cell-based; settings: COS-7

Muscarinic acetylcholine receptor M3 (Rattus norvegicus), P08483 [A91C,T549C], sequence (P08483 whole entry A91C/T549C): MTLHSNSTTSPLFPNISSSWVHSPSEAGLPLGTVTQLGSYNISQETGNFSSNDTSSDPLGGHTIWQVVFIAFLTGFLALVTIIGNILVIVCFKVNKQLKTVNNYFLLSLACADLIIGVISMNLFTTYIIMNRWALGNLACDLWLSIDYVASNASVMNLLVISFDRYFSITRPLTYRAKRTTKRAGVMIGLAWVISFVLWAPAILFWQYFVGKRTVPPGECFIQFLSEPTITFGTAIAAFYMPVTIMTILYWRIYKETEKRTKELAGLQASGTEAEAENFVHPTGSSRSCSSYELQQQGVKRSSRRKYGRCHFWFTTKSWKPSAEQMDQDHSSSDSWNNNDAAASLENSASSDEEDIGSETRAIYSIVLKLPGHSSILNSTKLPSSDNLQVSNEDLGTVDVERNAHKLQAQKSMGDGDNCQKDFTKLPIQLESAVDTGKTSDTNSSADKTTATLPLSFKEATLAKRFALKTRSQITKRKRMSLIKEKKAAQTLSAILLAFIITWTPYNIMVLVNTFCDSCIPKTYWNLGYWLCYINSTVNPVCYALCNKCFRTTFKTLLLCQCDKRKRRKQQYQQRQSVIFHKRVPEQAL
Muscarinic acetylcholine receptor M3 (Rattus norvegicus), P08483 [F92C,F550C], sequence (P08483 whole entry F92C/F550C): as the sequence (P08483 whole entry A91C/T549C) above, with C91A, F92C, C549T, F550C counted along it

| Structure (SMILES) | Emax [1] | Emax [2] | Activity [3] | Activity [4] | Activity [5] | Activity [6] | Activity (COS-7) | EC50 [7] | Ki [8] | Activity [9] | Activity [10] |
| --- | --- | --- | --- | --- | --- | --- | --- | --- | --- | --- | --- |
| C[N+]1(C)[C@@H]2C[C@@H](OC(=O)[C@H](CO)c3ccccc3)C[C@H]1[C@@H]1O[C@@H]12 | 244% | 192% | Active | Active | Active | Active | Active | – | – | – | – |
| C[N+](C)(C)CCOC(N)=O [CARBACHOL] | – | – | – | – | – | – | – | 0.063 µM | 23.1 µM | Active | Active |
| C[N+](C)(C)CC#CCN1CCCC1=O | – | – | – | – | – | – | – | – | – | Active | Active |
| CN1[C@@H]2CC[C@H]1C[C@@H](OC(=O)C(CO)c1ccccc1)C2 (stereo partly specified) | – | – | Active | Active | – | – | Active | – | – | – | – |
